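Step 1: Grow cells in 96-well plates. Step 2: Expose to compound for 48 hours at 5 concentrations. Step 3: Interpolate endpoints linearly; if unreached, use highest concentration. TGI: total growth inhibition.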
How the values were obtained:
Assay in all cases: growth of human tumour cells (NCI), 48 h
786-0 renal = system: 786-0 renal
EKVX NSCLC = system: EKVX NSCLC
HT29 colon = system: HT29 colon
NCI-H522 lung = system: NCI-H522 lung
SF-268 CNS = system: SF-268 CNS
SK-MEL-5 melanoma = system: SK-MEL-5 melanoma
SNB-19 CNS = system: SNB-19 CNS
UACC-62 melanoma = system: UACC-62 melanoma
OVCAR-5 ovarian = system: OVCAR-5 ovarian
PC-3 prostate = system: PC-3 prostate

Compound	TGI (786-0 renal) [µM]	TGI (EKVX NSCLC) [µM]	TGI (HT29 colon) [µM]	TGI (NCI-H522 lung) [µM]	TGI (SF-268 CNS) [µM]	TGI (SK-MEL-5 melanoma) [µM]	TGI (SNB-19 CNS) [µM]	TGI (UACC-62 melanoma) [µM]	TGI (OVCAR-5 ovarian) [µM]	TGI (PC-3 prostate) [µM]
COc1ccc(Cn2c(C)nc3c2C(=O)c2ccccc2C3=O)cc1	40	49.2	> 75	15.5	68.1	16.6	> 75	14		
[O-]/[N+](=C\c1ccccc1)[C@H](COCc1ccccc1)c1ccccc1	> 100	> 100	> 100	> 100	> 100	> 100	> 100		> 100	
O=C(O)c1ccccc1Cc1ccco1	> 100	> 100	> 100	> 100	> 100	> 100	> 100	> 100	> 100	
N#Cc1cc(C#N)c(Cl)nc1N	> 10	> 10	> 10		> 10	> 10	> 10	> 10		> 10
CCOc1ccc(NC(=O)CC2SC(=Nc3ccc(Cl)cc3)NC2=O)cc1 (stereo not given)	> 100	> 100	> 100		> 100	> 100	> 100	> 100	> 100	
O=C(O)CN(c1ccccc1)S(=O)(=O)c1ccc(NC(=O)c2ccccc2)cc1	> 100	> 100		> 100	> 100		> 100	> 100	> 100	
O=C(CC1=Nc2nnc(-c3nnc4n3C(=O)C(CC(=O)c3cccnc3)=N4)n2C1=O)c1cccnc1	> 100		> 100	> 100	> 100	> 100	> 100	> 100	> 100	
O=C(c1ccc2ccccc2c1O)N1CCCCC1	> 100	> 100	> 100		> 100	> 100	> 100	> 100		> 100
C=CCC1OC(C)(C)Oc2ccc(OCOCCOC)cc21 (stereo not given)	> 100	> 100	> 100		> 100	> 100	> 100	> 100	> 100	
COc1ccc(S(=O)(=O)NC(C)C(=O)O)cc1 (stereo not given)	> 100	> 100	> 100	> 100	> 100	> 100	> 100	> 100	> 100	
N=C(c1ccccc1)N(c1ccccc1)c1ccccc1	> 100	> 100	> 100	> 100	> 100		> 100		> 100	
Nc1nc(CCC(=O)Nc2cccc(C(F)(F)F)c2)cc(-c2cccc3ccccc23)n1	> 100	> 100	> 100	> 100	> 100	> 100	> 100	> 100	> 100	
FC(F)(F)C1(Cl)C(c2ccccc2)=C1c1ccccc1	31.1	29.9	29.3		30.8	24	31.9	27	31.3	
C1OCC2S[C@@H]3COCO[C@@H]3C2O1 (stereo not given in full)	> 100	> 100	> 100	> 100	> 100	> 100	> 100	> 100	> 100	
COc1cc2c(cc1O)C=NCC2	> 100	> 100		> 100	> 100	> 100	> 100	> 100	> 100	
CC12CC3C(CC1SCC(=O)O2)C3(C)C (stereo not given)	> 100	> 100	> 100		> 100	> 100			> 100	
CCCCCCCCCCCOC(=S)NC(C)C	39.3	43.3	34.6	39.7	42.7	31.2	> 100	31.1	52.5	
C1=C(c2ccccc2)CN(c2ccccc2)OC1	> 100	> 100	> 100	> 100	> 100		> 100	> 100	> 100	
O=C1OC(=O)c2c1c(-c1ccccc1)cn2-c1ccc(Cl)cc1	> 100	> 100	> 100	> 100	> 100	27.9	> 100		> 100	
C#CCC[C@@H]1O[C@@]1(C)CC/C=C(\C)CC/C=C/C=O	> 100	> 100	> 100		56.3		> 100	36.6	> 100	

— PubChem BioAssay (NCI)
